According to US6037351A, “Method of inhibiting hepatitis B virus” (priority 1996, dated 2000):

Legend:
[1] = Viability of 2.2.15 cells (propidium iodide FACS, 35S methionine incorporation); format: cell-based; conditions: human, 1000 μg/ml, six days, read-out: cells as viable as untreated controls
Method: Cell viability was measured by flow cytometry using a FACscan cytometer, Becton Dickinson, Sunnyvale, Calif., USA, after incubation with propidium iodide, as in Platt and Jacob, Eur. J. Biochem. 208, 187-193 (1992).
The decrease was not due to toxicity of NBDNJ, since 90% of the cells maintained in 1000 μgs/ml NBDNJ for six days were as viable as untreated controls, as determined by FACs analysis of propidium iodide stained cells and ^[35] -S methionine incorporation into proteins.

hepatitis B virus (HBV) [2] = assay: Intracellular HBV DNA in 2.2.15 cells (Southern blot, densitometry); format: cell-based, HBV in human hepatoma HepG 2.2.15 cells; conditions: for increase in intracellular HBV copy abundance: adjusted for loading variation
Method: HepG 2.2.15 cells were grown for 6 days in the presence of the indicated concentration of NBDNJ with one change of medium. After the sixth day (seventh day in culture), cells and medium were collected. Autoradiograms of the viral DNA detected by hybridization of membranes to HBV probes are shown.
FIG. 2B: autoradiogram of a Southern blot of total intracellular DNA, digested to completion with EcoRI, from cells maintained in the absence of NBDNJ (lane 1) and in the presence of the following NBDNJ concentrations:
DNA was prepared from the pellets as in Sells and Chen, Proc. Natl. Acad. Sci. USA 84, 1005-1009 (1987). For Southern blots [Maniatis et al., Molecular cloning, a laboratory manual, Cold Spring Harbor Laboratory, Cold Spring Harbor, N.Y. (1982)], DNA was resolved by electrophoresis through 1.2% agarose, transferred to H+ bond (Amersham) filter paper and hybridized with radioactive ^32 P (Amersham) HBV probe (made by the random priming method described by the kit manufacturer, (Amersham), using pHBV as template [Foster et al., Proc. Natl. Acad. Sci. USA 88, 2888-2892 (1991)].
The NBDNJ-mediated decrease in virion associated HBV DNA in the medium could have been due to a decrease in viral DNA synthesis. Alternatively, it could have been due to a post synthetic event such as virion assembly, transport or egress from the cell. To distinguish between these possibilities, the amount of intracellular HBV specific DNA in untreated and NBDNJ treated 2.2.15 cells was compared.
Total cellular DNA was prepared from treated and untreated cells and digested to completion with EcoRI to linearize viral genomes. Near equal microgram amounts of digestion products (as determined by ethidium bromide staining and hybridization to a cell specific probe) were resolved by electrophoresis, Southern blotted and hybridized with the HBV specific probe (FIG. 2B). Unit length HBV genomes migrating as 3.2 kb bands are detected in DNA derived from untreated 2.2.15 cells (lane 1) and virions isolated from control culture medium (lane 5).

hepatitis B virus (HBV) [3] = assay: Progeny HBV in medium of infected HepG2 cells (immunoprecipitation, PCR, densitometry); format: cell-based, HBV in human hepatoma HepG2 cells; conditions: NBDNJ 700 μg/ml (3.2 mM), HepG2 cells infected with protease processed HBV, five days after infection
From the text: FIG. 3A and FIG. 3C: DNA from virions, immunoprecipitated with monoclonal antibody to MHBs, was amplified by polymerase chain reaction (PCR) and resolved by agarose gel electrophoresis.
These bands were imaged by densitometry and the areas under the peaks are shown in FIG. 3C in which the average of the two samples of each NBDNJ concentration was plotted.
Infection of HepG2 cells:
HBV was purified from human serum or from the medium of cultured cells by sedimentation to between 40 and 46% sucrose (w/w) following ultracentrifugation, [Seifer et al., Virol. 179, 300-311 (1990)]. Virions were dialyzed in 0.02 M Potassium Phosphate Buffer, pH 7.4, concentrated, treated with V8 protease (from Staphylococcus aureus, Sigma Chemical Co.) overnight at 37° C. centrifuged for 8 hours through a 20% sucrose/0.01M Tris, pH 7.4, 0.14 M NaCl, 0.005 M EDTA (TNE) cushion. The pellets were re-suspended in growth medium and then used to inoculate HepG2 cells.
Progeny virus in the medium of HepG2 cells infected with serum derived HBV was detected by precipitating medium with monoclonal antibody to the PreS2 epitopes. DNA from immunoprecipated virions was amplified by a polymerase chain reaction (PCR) using primers from nucleotides 2815 and 190 with respect to the viral genome (using the EcoRI site as nucleotide 1). […]

HIV = conditions: read-out: EC50 for inhibition of HIV replication; cited from earlier work

SMILES: CCCCN1C[C@H](O)[C@@H](O)[C@H](O)[C@H]1CO [NBDNJ, N-butyl-1,5-dideoxy-1,5-imino-D-glucitol]
- viability at 144 h [1]: 90%
- increase in intracellular HBV copy abundance (hepatitis B virus (HBV) [2]; NBDNJ 200 μg/ml): 1.7 fold
- increase in intracellular HBV copy abundance (hepatitis B virus (HBV) [2]; NBDNJ 500 μg/ml): 3.0 fold
- increase in intracellular HBV copy abundance (hepatitis B virus (HBV) [2]; NBDNJ 1000 μg/ml): 5.1 fold
- amount of intracellular HBV DNA (in words) (hepatitis B virus (HBV) [2]; NBDNJ 200, 500, 1000 μg/ml): clear dose-dependent increase
- viral DNA in medium of infected cells vs untreated (hepatitis B virus (HBV) [3]): an order of magnitude less viral DNA
- EC50 (HIV): 43 µM
